Entries after “also recorded” stand apart in the source; their conditions may differ. Read-outs that look alike come from different tables or passages of the source.
Tests used:
S. aureus 6538 = test: Kirby-Bauer disc diffusion antimicrobial susceptibility; format: cell-based; conditions: 100 mM, carrier water; 18-24 hours for aerobes
[1] = system: P. aeruginosa (ACTA 9027); format: in vivo
[2] = system: P. aeruginosa (ACTA 27853); format: in vivo; conditions: for bacterial burden of P. aeruginosa in skin tissue: 25 mM topical in water
[3] = system: Propionibacterium acnes (1100; ATCC 6919); test: BALB/c mice intradermal infection, topical treatment, Example 9; format: in vivo; conditions: for effect on P. acnes CFU burden in mouse skin: 96 hours
Description: BALB/c mice were infected with Propionibacterium acnes via intradermal injection and treated topically with varying concentrations of a novel test compound, PCA, at 2, 24, 48 and 72 hours following challenge. Efficacy was evaluated by CFU analysis from skin samples harvested at 96 hours post challenge.
Female BALB/c mice, ordered from Harlan and weighing 17-19 g, were acclimated to housing conditions and handled in accordance with AUP number TP-18-13. The animals were acclimated for 4 days prior to bacterial challenge. Only animals deemed healthy and fully immunocompetent were included in this study. Cages were prepared with 2 mice per cage.
On Day −1, each mouse was anesthetized in an Isoflurane induction chamber and the lesion site was cleared of hair. An area of approximately 2.0 cm×2.0 cm of skin on the dorsal area of each mouse was cleared through use of the depilatory agent Nair®.
Cultures were grown for 96 hrs at 37° C. in an anaerobic atmosphere on TS agar plates supplemented with 5% sheep blood cells. The culture was aseptically swabbed and transferred to tubes of TS broth and allowed to grow for 72 hours. The cultures were diluted to provide challenge inoculum of approximately 6.0-7.0 log 10 CFU per 50 μL in PBS. On Day 0 each mouse was anesthetized using Isoflurane. Each animal on the study was administered 50 μL of the bacterial suspension via intradermal injection in the dorsal area that was previously denuded of hair. The final CFU count from the challenge suspension determined that 6.0 log 10 CFU per mouse were delivered.
The test treatment, PCA, was provided by the study Sponsor and formulated using sterile water. Treatments were administered topically in a dose volume of 0.1 mL. Treatments were given at 2, 24, 48 and 72 hours post challenge at 60 mg/kg (78 mM; Group 3), 30 mg/kg (39 mM; Group 4) or 15 mg/kg (19.5 mM; Group 5).
At 96 hours following challenge, mice were humanely euthanized and skin was aseptically removed from the infection site. Skin samples were placed in homogenation vials with 2.0 mL PBS, weighed and homogenized using a mini-bead beater. Homogenate was serially diluted and plated anaerobically on TSA agar plates for enumeration of colony forming units per gram of skin tissue.

[4] = system: Klebssilla pneumonia ATCC4352; test: Paper disc test with water or propylene glycol, Example 10; format: cell-based
[5] = Amount of PCA that can be dissolved; format: physicochemical
Description: For instance the dose used on an open rodent taped stripped skin would be conditioned by the wound's tolerance of the vehicle which in this case would be water, normal saline or like. The amount of PCA for instance that can be dissolved in water is 1.24 grams per 100 ml. In the rodent the effective dose of C-3-G and PCA were expressed in […] (mM) as 25 to 200 mM dose. Conversion factors are necessary to make comparisons to larger doses used in other applications. 78 mM (mmole/L) PCA would be 12.021 g PCA per Liter. Therefore 25 mM/L would be 3.852 grams per liter or […]. The fluid applied was […] or 0.1 milliliter. Therefore, for example, the dose of PCA that was bactericidal on Pseudomonas aeruginosa on taped stripped rodent skin was 0.00038 grams. When treating intact normal human skin as in the Loma Linda Medical School testing, it was shown the 1.24 gram in 100 ml of water would only decrease the number of colonies of Propionibacterium acnes. Note that there was no skin penetration properties to water by this method. The increase of PCA concentration was possible to as much as 17% when in composition of matter was 70% isopropyl alcohol with propylene glycol and essences of peppermint oil. This composition had skin penetration properties. However the amount of liquid applied was no more than one milliliter by cotton swab. Therefore the topical dose on intact human skin was […] (estimated). This is many times that required for traumatized taped stripped skin.
For compositions applied to the skin or a bandage the PCA crystals need to be dissolved in a liquid. […] The use of isopropyl alcohol in the combination was not an obvious choice because isopropyl alcohol alone only is marginally effective in killing bacteria. So even after using isopropyl alcohol to dissolve the PCA, the inventor discovered that even at 10% PCA in isopropyl alcohol, the composition was only marginally effective. […]

[6] = system: Staphylococcus aureus ATCC 33591 (MRSA) biofilm; test: Single spray on biofilm on glass slides, time study, Example 8; conditions: for CFUs after spray: 30% PCA spray
[7] = system: Staphylococcus aureus ATCC 33591 (MRSA) biofilm; test: Drip flow biofilm reactor, PCA coated cloth and sintered mesh, Example 7; conditions: 30% concentration of PCA (FIG. 36)

Compound: O=C(O)c1ccc(O)c(O)c1 [PCA, Protocatechuic acid]
- effectiveness against S. aureus 6538 (S. aureus 6538): effective
- most effective concentration for decreasing bacterial burden ([1]; of 50, 100 and 200 mM tested, 96 hours): 50 mM
- bacterial burden in the skin ([1]; topical in water, 50, 100 and 200 mM, at two hours and daily for four days, day five, none statistically significant): decreased the bacterial burden
- bacterial burden of P. aeruginosa in skin tissue ([2]; 48 and 96 hours): reduced the bacterial burden
- bacterial burden of P. aeruginosa in skin tissue ([2]; 48 hours): significantly decreased; also recorded: effective
- dose that was bactericidal on Pseudomonas aeruginosa on taped stripped rodent skin ([2]; calculated from 25 mM and applied volume): 0.00038 grams
- kill of Pseudomonas aeruginosa ([2]; in 48 hours, both reagents and dose (PCA 25, 50 mM; C3G 100, 200 mM)): 10,000 fold
- action on stripped skin wound of a rodent ([2]; topical, various calculated doses, in 48 to 96 hours): bactericidal
- effect on P. acnes CFU burden in mouse skin ([3]; 15 mg/kg (19.5 mM) topical): no such effect; also recorded: statistically non-different
- effect on P. acnes CFU burden in mouse skin ([3]; 30 mg/kg (39 mM) topical): no such effect; also recorded: statistically non-different
- reduction of CFU burden in skin vs untreated ([3]; 60 mg/kg (78 mM) topical at 2, 24, 48 and 72 hours, harvest 96 hours): approximately 1 log 10
- effect on P. acnes CFU burden in mouse skin ([3]; 60 mg/kg (78 mM) topical, P=0.0285 vs untreated): bacteriostatic effect; also recorded: significant reduction
- inhibition of growth under the sample ([4]; PPG): I
- zone of inhibition ([4]; PPG): 3 mm
- inhibition of growth under the sample ([4]; Water): I
- zone of inhibition ([4]; Water): 2 mm
- concentration possible in solution ([5]; 70% isopropyl alcohol with propylene glycol and essences of peppermint oil): ≤ 17%
- amount that can be dissolved in water ([5]; Water): 1.24 grams per 100 ml
- concentration achieved when dissolving in water ([5]; Water): ≤ 1.24%
- CFUs after spray ([6]; after 30 minutes, from 60 million CFUs): 3 million
- CFUs after spray ([6]; after 60 minutes, from 25 million): 2 million CFUs
- biofilms killed ([6]; […], 30 minutes): 90%
- effectiveness against MRSA biofilm [7]: effective; also recorded: very effective

From patent US20200222347A1, “ANTIMICROBIALS AND METHODS OF USE THEREOF” (priority 2013, published 2020)
